Test results published in PMC10033419, “Blocking NS3–NS4B interaction inhibits dengue virus in non-human primates” (Nature, 2023).
pEC50: −log10 of the molar value. Several values for one entry are separate records, joined by “and”; a condition that tells them apart may be missing. Equal entries are not always repeated. Where two headings read alike, the source gives them in different places.

Test system: DENV-2 RL
Assay: microbe, parasite or virus in culture
Assay type: cell-based
Conditions: Dengue virus, DENV2, Vero

## COc1cc(N[C@H](C(=O)c2c[nH]c3ccc(OC(F)(F)F)cc23)c2ccc(Cl)cc2OC)cc(S(C)(=O)=O)c1 [JNJ-1802]
read-out: EC50 values Ave, B sample, passage 8
  pEC50: 9.90
read-out: EC50 values Ave, B sample, passage 9
  pEC50: 9.90
read-out: EC50 values Ave, B sample, passage 10
  pEC50: 9.90
read-out: EC50 values Ave, B sample, passage 11
  EC50: 0.000146 µg/mL and 0.251 nM
read-out: EC50 values Ave, B sample, passage 12
  EC50: 0.000146 µg/mL and 0.251 nM
read-out: EC50 values Ave, B sample, passage 13
  EC50: 0.000293 µg/mL and 0.503 nM
read-out: EC50 values Ave, B sample, passage 14
  pEC50: 9.90
read-out: EC50 values Ave, B sample, passage 15
  pEC50: 9.90
read-out: EC50 values Ave, B sample, passage 16
  EC50: 0.000146 µg/mL and 0.251 nM
read-out: EC50 values Ave, B sample, passage 17
  EC50: 0.000146 µg/mL and 0.251 nM
read-out: EC50 values Ave, B sample, passage 18
  EC50: 0.000146 µg/mL and 0.251 nM
read-out: EC50 values Ave, B sample, passage 19
  EC50: 0.000293 µg/mL and 0.503 nM
read-out: EC50 values Ave, B sample, passage 20
  EC50: 0.000293 µg/mL and 0.503 nM
read-out: EC50 values Ave, B sample, passage 21
  EC50: 0.000293 µg/mL and 0.503 nM
read-out: EC50 values Ave, B sample, passage 22
  EC50: 0.000293 µg/mL and 0.503 nM
read-out: EC50 values Ave, B sample, passage 23
  pEC50: 9.00
read-out: EC50 values Ave, B sample, passage 24
  EC50: 0.00117 µg/mL and 2.01 nM
read-out: EC50 values Ave, B sample, passage 25
  EC50: 0.00234 µg/mL and 4.02 nM
read-out: EC50 values Ave, B sample, passage 26
  EC50: 0.00469 µg/mL and 8.04 nM
read-out: EC50 values Ave, B sample, passage 27
  EC50: 0.00469 µg/mL and 8.04 nM
read-out: EC50 values Ave, B sample, passage 28
  EC50: 0.00469 µg/mL and 8.04 nM
read-out: EC50 values Ave, B sample, passage 31
  EC50: 0.0234 µg/mL and 40.2 nM
read-out: EC50 values Ave, B sample, passage 32
  EC50: 0.0234 µg/mL and 40.2 nM
read-out: EC50 values Ave, B sample, passage 33
  EC50: 0.0469 µg/mL and 80.4 nM
read-out: EC50 values Ave, B sample, passage 34
  EC50: 0.0469 µg/mL and 80.4 nM
read-out: EC50 values Ave, B sample, passage 35
  EC50: 0.0469 µg/mL and 80.4 nM
read-out: EC50 values Ave, B sample, passage 36
  EC50: 0.0469 µg/mL and 80.4 nM
read-out: EC50 values Ave, B sample, passage 37
  EC50: 0.0469 µg/mL and 80.4 nM
read-out: EC50 values Ave, B sample, passage 38
  EC50: 0.0469 µg/mL and 80.4 nM
read-out: EC50 values Ave, B sample, passage 39
  EC50: 0.0938 µg/mL and 161 nM
read-out: EC50 values Ave, B sample, passage 40
  pEC50: 6.49
read-out: EC50 values Ave, B sample, passage 41
  EC50: 0.375 µg/mL and 643 nM
read-out: EC50 values Ave, B sample, passage 42
  EC50: 0.375 µg/mL and 643 nM
read-out: EC50 values Ave, B sample, passage 43
  EC50: 0.375 µg/mL and 643 nM
read-out: EC50 values Ave, B sample, passage 44
  EC50: 0.375 µg/mL and 643 nM
read-out: EC50 values Ave, B sample, passage 45
  EC50: 0.375 µg/mL and 643 nM
read-out: EC50 values Ave, B sample, passage 46
  EC50: 0.375 µg/mL and 643 nM
read-out: EC50 values Ave, B sample, passage 47
  EC50: 0.375 µg/mL and 643 nM
read-out: EC50 values Ave, B sample, passage 48
  pEC50: 5.89
read-out: EC50 values Ave, B sample, passage 49
  pEC50: 5.89
read-out: EC50 values Ave, B sample, passage 50 (END)
  pEC50: 5.89
read-out: EC50 values [Well 1], A sample, passage 1
  EC50: 0.049 ng/mL
read-out: EC50 values [Well 1], A sample, passage 2
  EC50: 0.049 ng/mL
read-out: EC50 values [Well 1], A sample, passage 3
  EC50: 0.049 ng/mL
read-out: EC50 values [Well 1], A sample, passage 4
  EC50: 0.049 ng/mL
read-out: EC50 values [Well 1], A sample, passage 5
  EC50: 0.049 ng/mL
read-out: EC50 values [Well 1], A sample, passage 7
  EC50: 0.049 ng/mL
read-out: EC50 values [Well 1], A sample, passage 8
  EC50: 0.049 ng/mL
read-out: EC50 values [Well 1], A sample, passage 10
  EC50: 0.195 ng/mL
read-out: EC50 values [Well 1], A sample, passage 11
  EC50: 0.195 ng/mL
read-out: EC50 values [Well 1], A sample, passage 12
  EC50: 0.195 ng/mL
read-out: EC50 values [Well 1], A sample, passage 13
  EC50: 0.391 ng/mL
read-out: EC50 values [Well 1], A sample, passage 16
  EC50: 1.56 ng/mL
read-out: EC50 values [Well 1], A sample, passage 17
  EC50: 3.13 ng/mL
read-out: EC50 values [Well 1], A sample, passage 18
  EC50: 6.25 ng/mL
read-out: EC50 values [Well 1], A sample, passage 20
  EC50: 25 ng/mL
read-out: EC50 values [Well 1], A sample, passage 21
  EC50: 25 ng/mL
read-out: EC50 values [Well 1], A sample, passage 22
  EC50: 25 ng/mL
read-out: EC50 values [Well 1], A sample, passage 23
  EC50: 25 ng/mL
read-out: EC50 values [Well 1], A sample, passage 24
  EC50: 50 ng/mL
read-out: EC50 values [Well 1], A sample, passage 25
  EC50: 50 ng/mL
read-out: EC50 values [Well 1], A sample, passage 26
  EC50: 100 ng/mL
read-out: EC50 values [Well 1], A sample, passage 27
  EC50: 200 ng/mL
read-out: EC50 values [Well 1], A sample, passage 28
  EC50: 200 ng/mL
read-out: EC50 values [Well 1], A sample, passage 29
  EC50: 200 ng/mL
read-out: EC50 values [Well 1], A sample, passage 30
  EC50: 200 ng/mL
read-out: EC50 values [Well 1], A sample, passage 31
  EC50: 100 ng/mL
